Laboratory results taken from paper PMC4399838, “Antipsychotic-Like Effect of the Muscarinic Acetylcholine Receptor Agonist BuTAC in Non-Human Primates” (PLoS ONE, 2015).

Molecular target: T1, M5AChR (Homo sapiens, UniProt P08912)
T1 sequence (P08912 1-532): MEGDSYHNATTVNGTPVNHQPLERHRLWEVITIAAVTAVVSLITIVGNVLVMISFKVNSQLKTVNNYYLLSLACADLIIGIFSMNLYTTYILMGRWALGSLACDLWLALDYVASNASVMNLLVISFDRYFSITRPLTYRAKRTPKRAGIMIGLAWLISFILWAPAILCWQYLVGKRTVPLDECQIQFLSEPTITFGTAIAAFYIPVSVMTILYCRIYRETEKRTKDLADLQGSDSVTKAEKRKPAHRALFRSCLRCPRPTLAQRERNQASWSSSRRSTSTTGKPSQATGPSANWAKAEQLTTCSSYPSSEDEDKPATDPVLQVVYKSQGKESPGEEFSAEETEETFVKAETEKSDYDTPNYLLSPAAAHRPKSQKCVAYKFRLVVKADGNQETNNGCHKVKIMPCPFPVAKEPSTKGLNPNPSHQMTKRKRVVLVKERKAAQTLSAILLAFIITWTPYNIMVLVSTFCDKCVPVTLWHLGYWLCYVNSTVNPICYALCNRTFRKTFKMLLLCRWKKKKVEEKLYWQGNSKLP
Assay: Competitive radioligand binding

CCCSc1nsnc1[C@H]1CN2CCC[C@H]1C2 [PTAC, (5R,6R) 6-(3-propylthio-1,2,5-thiadiazol-4-yl)-1-azabicyclo-[3.2.1]-octane]
Ki: 0.372 nM
